Reference: patent US11518764B2, “Substituted heteroaryls as inhibitors of the BCL6 BTB domain protein-protein interaction” (Ontario Institute for Cancer Research (OICR), priority 2018, dated 2022)

Columns and labels:
[1] = system: BCL6 reporter construct (3xBCL6-TK-Luc) in SuDHL4 cells; experiment: Cell-based luciferase assay; conditions: Homo sapiens, SU-DHL-4, 48 h, read-out: Luciferase-Assay EC50, uM), SuDHL4-3xBCL6-TK-Luc cells, two days, high dose 10 uM
Outline: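 SuDHL4 cells stably carrying a 3×BCL6-site TK-promoter firefly luciferase reporter, seeded at 15,000 cells/well, were dosed over a 10-point range (top 10 uM) and grown two days at 37 °C, 5% CO2. Luminescence then read after adding neolite reagent at room temperature.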

Karpas422 cells = experiment: Tumor cell growth inhibition assay; assay type: cell-based; conditions: Homo sapiens, KARPAS-422, 144 h, read-out: Tumor Growth Inhibition in Karpas-422 (IC50, uM), Karpas422 cells, six days, ATPlite
Outline: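 Karpas422 cells (2,000/well) in Alpha-MEM with 10% FBS dosed across 10 concentrations (top 5 uM) and grown six days at 37° C., 5% CO2. Viability read as ATPlite luminescence.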

BCL6 BTB domain = BCL6 BTB domain (Homo sapiens (Human), UniProt P41182); experiment: Surface plasmon resonance (SPR) assay; assay type: binding; conditions: BCL6 BTB domain captured on SA chip, single cycle kinetics

| SMILES | EC50 [1] [µM] | IC50 (Karpas422 cells) [µM] | Kd (BCL6 BTB domain) [nM] |
| --- | --- | --- | --- |
| CC(C1CC1)N1CCN(c2cc(NC(=O)Cn3cc(-c4cc(Cl)c(O)c(C(N)=O)c4)c4c(=O)n(C)cnc43)c(Cl)cn2)[C@@H](C)C1 (stereo partly drawn) [Compound I-392] | 0.178 | 0.072 | 15.5 |
| CC(C1CC1)N1CCN(c2cc(NC(=O)Cn3cc(-c4cc(C(N)=O)c(O)c(F)c4F)c4c(=O)n(C)cnc43)c(Cl)cn2)[C@@H](C)C1 (stereo partly drawn) [Compound I-393] | 0.266 | 0.222 | 33.6 |
| CCCN1CCN(c2cc(NC(=O)Cn3cc(-c4cc(C(N)=O)c(O)c(F)c4F)c4c(=O)n(C)cnc43)c(Cl)cn2)[C@@H](C)C1 [Compound I-394] | 0.313 | 0.269 | 38.4 |
| CN1CCOC2CN(c3cc(NC(=O)Cn4cc(-c5cc(Cl)c(O)c(C(N)=O)c5)c5c(=O)n(C)c(C(F)(F)F)nc54)c(Cl)cn3)CC21 (stereo not drawn) [Compound I-395] | 0.168 | 0.669 | 48.3 |
| CN1CC2CCC(C1)N2c1cc(NC(=O)Cn2cc(-c3cc(Cl)c(O)c(C(N)=O)c3)c3c(=O)n(C)c(C(F)(F)F)nc32)c(Cl)cn1 [Compound I-396] | 0.683 | 0.749 | 226 |
| C[C@H]1COCCN1c1cc(NC(=O)Cn2cc(-c3cc(C(N)=O)c(O)c(F)c3F)c3c(=O)n(C)cnc32)c(F)cn1 [Compound I-397] | 3.31 | 2.54 | 98.3 |
| COc1ccc(Cl)c(NC(=O)Cn2cc(-c3cc(Cl)c(O)c(C(N)=O)c3)c3c(=O)n(C)cnc32)c1 [Compound I-398] | 2.6 | 1.3 | 82.7 |
| CO[C@@H]1CN(c2cc(NC(=O)Cn3cc(-c4cc(Cl)c(O)c(C(N)=O)c4)c4c(=O)n(C)c(C)nc43)c(Cl)c(F)n2)C[C@@H]1F [Compound I-399] | 0.268 | 0.535 | 30.7 |
| CO[C@H]1CN(c2cc(NC(=O)Cn3cc(-c4cc(Cl)c(O)c(C(N)=O)c4)c4c(=O)n(C)c(C)nc43)c(Cl)c(F)n2)C[C@H]1F [Compound I-400] | 0.204 | 0.408 | 27.8 |
| CO[C@H]1CN(c2cc(NC(=O)Cn3cc(-c4cc(Cl)c(O)c(C(N)=O)c4)c4c(=O)n(C)c(C)nc43)c(Cl)cn2)C[C@H]1F [Compound I-401] | 0.427 | 1.22 | 28.9 |
| CO[C@@H]1CN(c2cc(NC(=O)Cn3cc(-c4cc(Cl)c(O)c(C(N)=O)c4)c4c(=O)n(C)c(C)nc43)c(Cl)cn2)C[C@@H]1F [Compound I-402] | 0.18 | 0.714 | 28 |
| CN1CCOC2(CCN(c3cc(NC(=O)Cn4cc(-c5cc(C(N)=O)c(O)c(F)c5F)c5c(=O)n(C)cnc54)c(Cl)cn3)C2)C1 (stereo not drawn) [Compound I-403] | 5.54 | 3.32 | 81.9 |
| Cn1cnc2c(c(-c3cc(C(N)=O)c(O)c(F)c3F)cn2CC(=O)Nc2cc(N3CCOCC3)ncc2F)c1=O [Compound I-404] | 4.06 | 10 | 106 |
| C[C@H]1CN(Cc2ccco2)CCN1c1cc(NC(=O)Cn2cc(-c3cc(C(N)=O)c(O)c(F)c3F)c3c(=O)n(C)cnc32)c(Cl)cn1 [Compound I-405] | 0.459 | 0.254 | 32.6 |
| Cc1ccc(CN2CCN(c3cc(NC(=O)Cn4cc(-c5cc(C(N)=O)c(O)c(F)c5F)c5c(=O)n(C)cnc54)c(Cl)cn3)[C@@H](C)C2)s1 [Compound I-406] | 3.06 | 4.32 | 574 |
| C[C@H]1CN(CC2(C#N)CC2)CCN1c1cc(NC(=O)Cn2cc(-c3cc(C(N)=O)c(O)c(F)c3F)c3c(=O)n(C)cnc32)c(Cl)cn1 [Compound I-407] | 0.783 | 0.377 | 23.6 |
| C[C@H]1CN(CC2CCC2)CCN1c1cc(NC(=O)Cn2cc(-c3cc(C(N)=O)c(O)c(F)c3F)c3c(=O)n(C)cnc32)c(Cl)cn1 [Compound I-408] | 0.759 | 0.463 | 38.2 |
| C[C@H]1COCCN1c1cc(NC(=O)Cn2cc(-c3cc(C(N)=O)c(O)c(Cl)c3F)c3c(=O)n(C)cnc32)c(Cl)c(F)n1 [Compound I-409] | 2.34 | 1.82 | 95.2 |

| SMILES | EC50 [1] [µM] | IC50 (Karpas422 cells) [µM] | Kd (BCL6 BTB domain) [nM] |
| --- | --- | --- | --- |
| COc1c(O)c(C(N)=O)cc(-c2cn(CC(=O)Nc3cc(N4CCOC[C@@H]4C)nc(F)c3Cl)c3ncn(C)c(=O)c23)c1F [Compound I-411] | 0.771 | 1.12 | 46.2 |
| C[C@H]1CN(C2COC2)CCN1c1cc(NC(=O)Cn2cc(-c3cc(Cl)c(O)c(C(N)=O)c3)c3c(=O)n(C)cnc32)c(Cl)c(F)n1 [Compound I-413] | 0.06 | 0.0822 | 6.15 |
| COCCN1CCN(c2cc(NC(=O)Cn3cc(-c4cc(C(N)=O)c(O)c(F)c4F)c4c(=O)n(C)cnc43)c(Cl)cn2)[C@@H](C)C1 [Compound I-414] | 0.374 | 0.455 | 17.9 |
| COCCN1CCN(c2cc(NC(=O)Cn3cc(-c4cc(Cl)c(O)c(C(N)=O)c4)c4c(=O)n(C)cnc43)c(Cl)cn2)[C@@H](C)C1 [Compound I-415] | 0.0872 | 0.122 | 5.95 |
| COCCN1CCN(c2cc(NC(=O)Cn3cc(-c4cc(F)c(O)c(C(N)=O)c4)c4c(=O)n(C)cnc43)c(Cl)cn2)[C@@H](C)C1 [Compound I-416] | 0.0787 | 0.0592 | 2.73 |
| Cn1cnc2c(c(-c3cc(C(N)=O)c(O)c(F)c3F)cn2CC(=O)Nc2cc(N3CCCC3)nc(F)c2Cl)c1=O [Compound I-417] | 0.478 | 0.441 | 21.7 |
| Cn1cnc2c(c(-c3cc(Cl)c(O)c(C(N)=O)c3)cn2CC(=O)Nc2cc(N3CCCC3)nc(F)c2Cl)c1=O [Compound I-418] | 0.663 | 0.303 | 22.1 |
| Cn1cnc2c(c(-c3cc(F)c(O)c(C(N)=O)c3)cn2CC(=O)Nc2cc(N3CCCC3)nc(F)c2Cl)c1=O [Compound I-419] | 0.348 | 0.22 | 5.85 |
| CN(C)c1cc(NC(=O)Cn2cc(-c3cc(C(N)=O)c(O)c(F)c3F)c3c(=O)n(C)cnc32)c(Cl)c(F)n1 [Compound I-420] | 0.429 | 0.383 | 16.3 |
| CN(C)c1cc(NC(=O)Cn2cc(-c3cc(Cl)c(O)c(C(N)=O)c3)c3c(=O)n(C)cnc32)c(Cl)c(F)n1 [Compound I-421] | 0.154 | 0.154 | 14.7 |
| CN(C)c1cc(NC(=O)Cn2cc(-c3cc(F)c(O)c(C(N)=O)c3)c3c(=O)n(C)cnc32)c(Cl)c(F)n1 [Compound I-423] | 0.143 | 0.0391 | 5.06 |
| C[C@@H](C1CC1)N1CCN(c2cc(NC(=O)Cn3cc(-c4cc(C(N)=O)c(O)c(F)c4F)c4c(=O)n(C)cnc43)c(Cl)cn2)[C@@H](C)C1 [Compound I-424] | 0.309 | 0.157 | 26.1 |
| C[C@H](C1CC1)N1CCN(c2cc(NC(=O)Cn3cc(-c4cc(C(N)=O)c(O)c(F)c4F)c4c(=O)n(C)cnc43)c(Cl)cn2)[C@@H](C)C1 [Compound I-425] | 0.629 | 0.624 | 44.7 |
| CCN1CCN(c2cc(NC(=O)Cn3cc(-c4cc(C(N)=O)c(O)c(F)c4F)c4c(=O)n(C)cnc43)c(Cl)c(F)n2)[C@@H](C)C1 [Compound I-426] | 0.226 | 0.128 | 17.7 |
| CCN1CCN(c2cc(NC(=O)Cn3cc(-c4cc(Cl)c(O)c(C(N)=O)c4)c4c(=O)n(C)cnc43)c(Cl)c(F)n2)[C@@H](C)C1 [Compound I-427] | 0.156 | 0.114 | 13.8 |
| CCN1CCN(c2cc(NC(=O)Cn3cc(-c4cc(F)c(O)c(C(N)=O)c4)c4c(=O)n(C)cnc43)c(Cl)c(F)n2)[C@@H](C)C1 [Compound I-428] | 0.102 | 0.0682 | 2.35 |
| Cc1nc2c(c(-c3cc(C(N)=O)c(O)c(F)c3F)cn2CC(=O)Nc2cc(N3CCN(C4COC4)C[C@@H]3C)nc(F)c2Cl)c(=O)n1C [Compound I-429] | 0.162 | 0.154 | 10.9 |
